The source of these data is patent publication US6426369B1, “Oxethazaine as antimicrobial agent” (Eisai Co., Ltd., priority 1997, dated 2002).

Values after ≈ are worked out from the molar mass of the structure shown. A value given as a limit tells only on which side of the number the result lay.

The subject of one assay is Gram-positive bacteria. Kind of assay: Antimicrobial activity (MIC) of oxethazaine and structure analogues against Gram-positive bacteria. It counts as cell-based.
In assay [1] the test system is H. pylori. The assay can be described thus: Antimicrobial activity test 1: anti-H. pylori activity of a single compound (agar plate method). It counts as cell-based, Helicobacter pylori. The following applies: Helicobacter pylori, read-out: MIC (growth inhibition).
Assay [2] relates to H. pylori. The settings on record: PPI alone, 30 mg/day, 8 weeks; cited from earlier work.
Assay [3] deals with H. pylori. The assay can be described thus: Antimicrobial activity test 6: oxethazaine in combination with an antibiotic (AMPC, CAM, RXM), checker board method. The format is cell-based, Helicobacter pylori. The following applies: combined use with oxethazaine; out of 15 strains (AMPC), 21 strains (CAM), 22 strains (RXM). The text has this: The effect of combined use with amoxicillin (AMPC), clarithromycin (CAM) or roxithromycin (RXM) was examined in the same manner as in antimicrobial activity test 1, using the checker board method.

Assay [4] deals with H. pylori. Kind of assay: Antimicrobial activity test 2: time for sterilizing H. pylori (viable cell count in Brucella broth). The settings on record: NCTC 11637. The format is cell-based, Helicobacter pylori. As for the experimental part:
A solution of the test compound was added to Brucella broth containing 5% fetal bovine serum, cultured under slightly aerobic conditions at 37° C., and the vial microbe cell number in Brucella agar containing 7% horse blood was counted at predetermined intervals. The above compound (1) was dissolved in a 1% aqueous solution of […] (DMSO), and the above compound (2) was dissolved in water to prepare a solution of each test compound. “cfu” in Tables and Figures means “colony forming unit”.

In assay [5] the test system is H. pylori. The assay can be described thus: Antimicrobial activity test 3: oxethazaine in combination with compound (II), checker board method. The settings on record: Helicobacter pylori. The format is cell-based. The text has this:
In each Table, the concentration of oxethazaine is shown vertically, and the concentration of compound (II) is shown horizontally. In each Table, “−” indicates the inhibited growth of H. pylori (presence of antimicrobial activity), and “+” indicates the growth of H. pylori (absence of antimicrobial activity). […] It is assumed to be present when the MIC of either oxethazaine or PPI is reduced by ½ (when anti-H. pylori activity is not recognized when the concentrations of both oxethazaine and PPI are reduced to ¼, but anti-H. pylori activity is recognized when the concentration of one compound is reduced to ¼ and simultaneously the concentration of the other compound is reduced to ½.).

[6] abbreviates: strain 90-397 (first line, r19).
The mark [7] stands for this setting: strain 90-397 (second line, r25).

Take `CCOC(=O)c1ccc(N)cc1` [(A)]: the “antimicrobial activity (MIC)” value in the assay with Gram-positive bacteria (E. faecalis RIMD 3116001), with Gram-positive bacteria (S. aureus FDA 209-P) and in the assay with Gram-positive bacteria (S. epidermidis ATCC 12228) was over 100 µg/mL in each case.

In the case of `Cc1c(OCC(F)(F)F)ccnc1C[S+]([O-])c1nc2ccccc2[nH]1` (stereo not drawn) [Compound (IV), lansoprazole], the minimum inhibitory concentration (MIC) with H. pylori [1] (NCTC11637, strain NCTC11637) turned out to be 12.5 µg/mL (≈ 33.8 µM); with H. pylori [1] (NCTC11639, strain NCTC11639), 3.13 µg/mL (≈ 8.47 µM); with H. pylori [1] (NCTC11916, strain NCTC11916), 6.25 µg/mL (≈ 16.9 µM); in the assay with H. pylori [1] (strain 89-355) it was 3.13 µg/mL (≈ 8.47 µM); in the assay on H. pylori [1] (strain 89-357), 6.25 µg/mL (≈ 16.9 µM); in the assay on H. pylori [1] (strain 89-360 (1)), 6.25 µg/mL (≈ 16.9 µM). The MIC in the assay with H. pylori [1] (strain 89-360) was found to be 6.25 µg/mL (≈ 16.9 µM); in the assay on H. pylori [1] (strain 90-384), 3.13 µg/mL (≈ 8.47 µM); in the assay on H. pylori [1] (strain 90-388 (1)) it was 6.25 µg/mL (≈ 16.9 µM); with H. pylori [1] (strain 90-388), 3.13 µg/mL (≈ 8.47 µM); with H. pylori [1] (strain 90-390 (1)) it was 6.25 µg/mL (≈ 16.9 µM); with H. pylori [1] (strain 90-390), 3.13 µg/mL (≈ 8.47 µM). The minimal inhibitory concentration (MIC) with H. pylori [1] (strain 90-392) was 6.25 µg/mL (≈ 16.9 µM); in the assay on H. pylori [1] (setting [6]), 3.13 µg/mL (≈ 8.47 µM); in the assay on H. pylori [1] (setting [7]), 6.25 µg/mL (≈ 16.9 µM); in the assay on H. pylori [1] (strain 90-407 (1)), 6.25 µg/mL (≈ 16.9 µM); with H. pylori [1] (strain 90-407), 3.13 µg/mL (≈ 8.47 µM); with H. pylori [1] (strain 90-411) it was 3.13 µg/mL (≈ 8.47 µM). For the same compound, the MIC in the assay on H. pylori [1] (strain 90-414 (1)) is 6.25 µg/mL (≈ 16.9 µM); in the assay with H. pylori [1] (strain 90-414), 6.25 µg/mL (≈ 16.9 µM); in the assay with H. pylori [1] (strain 90-428), 6.25 µg/mL (≈ 16.9 µM); in the assay on H. pylori [1] (strain EH12) it was 3.13 µg/mL (≈ 8.47 µM); in the assay on H. pylori [1] (strain EH13), 3.13 µg/mL (≈ 8.47 µM); in the assay with H. pylori [1] (strain EH16), 3.13 µg/mL (≈ 8.47 µM). In the assay with H. pylori [1] (strain EH26), the minimum inhibitory concentration (MIC) stood at 6.25 µg/mL (≈ 16.9 µM). Further, in the assay on H. pylori [2], the “degree of efficacy for H. pylori therapy” value is on record as 5%.

In the case of `CCN(CC)CCOC(=O)c1ccc(N)cc1.Cl` [(C)], the “antimicrobial activity (MIC)” value in the assay with Gram-positive bacteria (E. faecalis RIMD 3116001), with Gram-positive bacteria (S. aureus FDA 209-P) and with Gram-positive bacteria (S. epidermidis ATCC 12228) was over 100 µg/mL throughout.

With `COc1ccc2[nH]c([S+]([O-])Cc3ncc(C)c(OC)c3C)nc2c1` (stereo not drawn) [Compound (III), omeprazole], the MIC in the assay with H. pylori [1] (NCTC11637, strain NCTC11637) stood at 50 µg/mL (≈ 145 µM); with H. pylori [1] (NCTC11639, strain NCTC11639), 25 µg/mL (≈ 72.4 µM); in the assay on H. pylori [1] (NCTC11916, strain NCTC11916) it was 50 µg/mL (≈ 145 µM); in the assay on H. pylori [1] (strain 89-355), 25 µg/mL (≈ 72.4 µM); in the assay on H. pylori [1] (strain 89-357) it was 50 µg/mL (≈ 145 µM); in the assay with H. pylori [1] (strain 89-360), 50 µg/mL (≈ 145 µM). Moreover, the MIC amounted to 50 µg/mL (≈ 145 µM) in the assay on H. pylori [1] (strain 90-384); 25 µg/mL (≈ 72.4 µM) in the assay with H. pylori [1] (strain 90-388 (1)); 50 µg/mL (≈ 145 µM) with H. pylori [1] (strain 90-388); 25 µg/mL (≈ 72.4 µM) with H. pylori [1] (strain 90-390 (1)); 50 µg/mL (≈ 145 µM) in the assay on H. pylori [1] (strain 90-390); 25 µg/mL (≈ 72.4 µM) in the assay on H. pylori [1] (strain 90-392). In addition, the MIC came to 25 µg/mL (≈ 72.4 µM) in the assay with H. pylori [1] (setting [6]); 25 µg/mL (≈ 72.4 µM) with H. pylori [1] (setting [7]); 25 µg/mL (≈ 72.4 µM) in the assay on H. pylori [1] (strain 90-407); 25 µg/mL (≈ 72.4 µM) in the assay on H. pylori [1] (strain 90-411); 25 µg/mL (≈ 72.4 µM) with H. pylori [1] (strain 90-414 (1)); 50 µg/mL (≈ 145 µM) with H. pylori [1] (strain 90-414). In addition, the minimal inhibitory concentration (MIC) with H. pylori [1] (strain 90-428) amounted to 50 µg/mL (≈ 145 µM); in the assay with H. pylori [1] (strain EH12), 25 µg/mL (≈ 72.4 µM); in the assay on H. pylori [1] (strain EH13), 25 µg/mL (≈ 72.4 µM); in the assay with H. pylori [1] (strain EH16) it was 25 µg/mL (≈ 72.4 µM); in the assay with H. pylori [1] (strain EH26) it was 25 µg/mL (≈ 72.4 µM).

Regarding `CCOC(=O)c1ccc(NC(=O)CN2CCCCC2)cc1` [(B)], the “antimicrobial activity (MIC)” value in the assay with Gram-positive bacteria (E. faecalis RIMD 3116001), in the assay with Gram-positive bacteria (S. aureus FDA 209-P) and with Gram-positive bacteria (S. epidermidis ATCC 12228) was over 100 µg/mL throughout.

As for `CC1(C)S[C@@H]2[C@H](NC(=O)[C@H](N)c3ccc(O)cc3)C(=O)N2[C@H]1C(=O)O` [Amoxicillin, amoxicillin], in the assay with H. pylori [3], the “additive effect, number of strains” value is given as 10 strains/ and the “synergism, number of strains” value was determined as 0 strains/.

As to `CC1(C)S[C@@H]2[C@H](NC(=O)[C@H](N)c3ccccc3)C(=O)N2[C@H]1C(=O)O` [ampicillin], the “Viable microbe cell number” value in the assay on H. pylori [4] (1 MIC, 0 h) is listed as 6.25 log10cfu/ml; in the assay with H. pylori [4] (1 MIC, 3 h) it was 5.51 log10cfu/ml; in the assay on H. pylori [4] (1 MIC, 6 h), 4.49 log10cfu/ml; with H. pylori [4] (1 MIC, 24 h), 3.48 log10cfu/ml; with H. pylori [4] (2 MIC, 0 h), 6.25 log10cfu/ml; in the assay with H. pylori [4] (2 MIC, 3 h), 5.30 log10cfu/ml. Also, the “Viable microbe cell number” value with H. pylori [4] (2 MIC, 6 h) is on record as 4.41 log10cfu/ml; in the assay with H. pylori [4] (2 MIC, 24 h), 3.00 log10cfu/ml; in the assay with H. pylori [4] (4 MIC, 0 h) it was 6.25 log10cfu/ml; in the assay with H. pylori [4] (4 MIC, 3 h), 4.95 log10cfu/ml; with H. pylori [4] (4 MIC, 6 h), 4.20 log10cfu/ml; in the assay on H. pylori [4] (4 MIC, 24 h) it was 2.48 log10cfu/ml.

Regarding `COCCCOc1ccnc(CSc2nc3ccccc3[nH]2)c1C` [Compound (II), 2-[4-(3-methoxypropoxy)-3-methylpyridine-2-yl]methylthio-1H-benzimidazole], the minimum inhibitory concentration (MIC) is 1.56 µg/mL (≈ 4.54 µM) in the assay on H. pylori [1] (NCTC11637, strain NCTC11637); 0.8 µg/mL (≈ 2.33 µM) in the assay on H. pylori [1] (NCTC11639, strain NCTC11639); 1.56 µg/mL (≈ 4.54 µM) in the assay on H. pylori [1] (NCTC11916, strain NCTC11916); 1.56 µg/mL (≈ 4.54 µM) with H. pylori [1] (strain 89-355); 0.8 µg/mL (≈ 2.33 µM) in the assay with H. pylori [1] (strain 89-357); 1.56 µg/mL (≈ 4.54 µM) in the assay with H. pylori [1] (strain 89-360 (1)). The MIC with H. pylori [1] (strain 89-360) turned out to be 1.56 µg/mL (≈ 4.54 µM); in the assay on H. pylori [1] (strain 90-384) it was 1.56 µg/mL (≈ 4.54 µM); in the assay with H. pylori [1] (strain 90-388 (1)), 0.8 µg/mL (≈ 2.33 µM); in the assay on H. pylori [1] (strain 90-388), 1.56 µg/mL (≈ 4.54 µM); in the assay with H. pylori [1] (strain 90-390 (1)), 0.8 µg/mL (≈ 2.33 µM); in the assay on H. pylori [1] (strain 90-390), 0.8 µg/mL (≈ 2.33 µM). Also, the MIC amounted to 0.8 µg/mL (≈ 2.33 µM) in the assay with H. pylori [1] (strain 90-392); 1.56 µg/mL (≈ 4.54 µM) in the assay with H. pylori [1] (setting [6]); 0.8 µg/mL (≈ 2.33 µM) in the assay with H. pylori [1] (setting [7]); 0.8 µg/mL (≈ 2.33 µM) with H. pylori [1] (strain 90-407 (1)); 1.56 µg/mL (≈ 4.54 µM) in the assay with H. pylori [1] (strain 90-407); 0.8 µg/mL (≈ 2.33 µM) with H. pylori [1] (strain 90-411). In addition, the minimal inhibitory concentration (MIC) with H. pylori [1] (strain 90-414 (1)) turned out to be 0.8 µg/mL (≈ 2.33 µM); in the assay with H. pylori [1] (strain 90-414), 0.8 µg/mL (≈ 2.33 µM); in the assay on H. pylori [1] (strain 90-428), 1.56 µg/mL (≈ 4.54 µM); with H. pylori [1] (strain EH12) it was 0.8 µg/mL (≈ 2.33 µM); with H. pylori [1] (strain EH13), 0.8 µg/mL (≈ 2.33 µM); in the assay on H. pylori [1] (strain EH16), 0.8 µg/mL (≈ 2.33 µM). The MIC turned out to be 1.56 µg/mL (≈ 4.54 µM) in the assay on H. pylori [1] (strain EH26); 1.56 µg/mL in the assay on H. pylori [5] (NCTC11637, NCTC 11637); 0.8 µg/mL with H. pylori [5] (NCTC11639, NCTC 11639).
